Test results reported in ChEMBL document CHEMBL4765365, “Design, synthesis and antitumour evaluation of pyrrolo[1,2-f]-phenanthridine and dibenzo[f,h]pyrrolo[1,2-b]isoquinoline derivatives” (Eur J Med Chem, 2020).
Each block holds one compound with its values, some of them ahead of it. The source made the active and inactive calls. The rule behind the calls is not given here.

Experiments:
CCRF-CEM = test: Cytotoxicity against human CCRF-CEM cells assessed as reduction in cell viability incubated for 72 hrs by XTT assay; type: functional, cell-based
CEM-VLB = test: Cytotoxicity against human CEM-VLB cells assessed as reduction in cell viability incubated for 72 hrs by XTT assay; type: functional, cell-based
HCT-116 = test: Cytotoxicity against human HCT-116 cells assessed as reduction in cell viability incubated for 72 hrs by XTT assay; type: functional, cell-based; settings: HCT-116, 72 h
NCI-H1650 = test: Cytotoxicity against human NCI-H1650 cells assessed as reduction in cell viability incubated for 72 hrs by XTT assay; type: functional, cell-based; settings: NCI-H1650, 72 h
NCI-H460 = test: Cytotoxicity against human NCI-H460 cells assessed as reduction in cell viability incubated for 72 hrs by XTT assay; type: functional, cell-based; settings: NCI-H460, 72 h
[1] = Cytotoxicity against human PacaS1 cells assessed as reduction in cell viability incubated for 72 hrs by XTT assay; type: functional, cell-based; settings: PacaS1, 72 h
dsDNA = test: Induction of pBR322 DNA interstand crosslink at 1 to 20 uM incubated for 2 hrs by agarose gel electrophoresis assay; settings: dose 1-20 µM

Compound: CCNC(=O)OCc1c(COC(=O)NCC)c2c3ccccc3c3ccccc3n2c1-c1ccc(OC)cc1
IC50 (CCRF-CEM): 3.01 µM
IC50 (CEM-VLB): 2.85 µM

Compound: OCc1c(CO)c(-c2ccccc2)n2c1Cc1c(c3ccccc3c3ccccc13)C2
IC50 (CCRF-CEM): 3.21 µM
IC50 (CEM-VLB): 3.66 µM
IC50 (HCT-116): 5.99 µM
IC50 (NCI-H1650): 7.95 µM
IC50 (NCI-H460): 2.34 µM
IC50 [1]: 4.45 µM

Activity (dsDNA): Active
Compound: Cc1c(CO)c(CO)c2c3ccccc3c3ccccc3n12
IC50 (CCRF-CEM): 0.91 µM
IC50 (CEM-VLB): 0.55 µM
IC50 (HCT-116): 1.88 µM
IC50 (NCI-H1650): 4.46 µM
IC50 (NCI-H460): 2.87 µM
IC50 [1]: 3.5 µM

Compound: CCc1c(COC(=O)NC(C)C)c(COC(=O)NC(C)C)c2c3ccccc3c3ccccc3n12
IC50 (CCRF-CEM): 1.89 µM
IC50 (CEM-VLB): 1.55 µM
IC50 (HCT-116): 16.2 µM
IC50 (NCI-H1650): 10.2 µM
IC50 (NCI-H460): 4.98 µM
IC50 [1]: 4.58 µM

Compound: OCc1c(CO)c(-c2ccc(F)cc2)n2c1Cc1c(c3ccccc3c3ccccc13)C2
IC50 (CCRF-CEM): 6.5 µM
IC50 (CEM-VLB): 6.14 µM

Compound: CCc1c(CO)c(CO)c2c3ccccc3c3ccccc3n12
IC50 (CCRF-CEM): 7.39 µM
IC50 (CEM-VLB): 2.89 µM
IC50 (HCT-116): 11.5 µM
IC50 (NCI-H1650): 13.6 µM
IC50 (NCI-H460): 9.48 µM
IC50 [1]: 6.2 µM

Compound: Cc1c(COC(=O)NC(C)C)c(COC(=O)NC(C)C)c2c3ccccc3c3ccccc3n12
IC50 (CCRF-CEM): 0.35 µM
IC50 (CEM-VLB): 0.34 µM
IC50 (HCT-116): 2.12 µM
IC50 (NCI-H1650): 5.17 µM
IC50 (NCI-H460): 1.19 µM
IC50 [1]: 1.8 µM

Compound: OCc1c(CO)c2c3ccccc3c3ccccc3n2c1-c1ccc(F)cc1
IC50 (CCRF-CEM): 8.09 µM
IC50 (CEM-VLB): 6.44 µM

Compound: CCNC(=O)OCc1c(COC(=O)NCC)c2c3ccccc3c3ccccc3n2c1C
IC50 (CCRF-CEM): 0.37 µM
IC50 (CEM-VLB): 0.37 µM
IC50 (HCT-116): 2.1 µM
IC50 (NCI-H1650): 4.47 µM
IC50 (NCI-H460): 1.2 µM
IC50 [1]: 2.26 µM

Compound: COc1ccc(-c2c(CO)c(CO)c3c4ccccc4c4ccccc4n23)cc1
IC50 (CCRF-CEM): 6.34 µM
IC50 (CEM-VLB): 4.77 µM

Activity (dsDNA): Active
Compound: Cc1c(CO)c(CO)c2n1Cc1c(c3ccccc3c3ccccc13)C2
IC50 (CCRF-CEM): 0.36 µM
IC50 (CEM-VLB): 0.34 µM
IC50 (HCT-116): 1.57 µM
IC50 (NCI-H1650): 2.69 µM
IC50 (NCI-H460): 0.18 µM
IC50 [1]: 1.8 µM

Compound: CC(C)NC(=O)OCc1c(COC(=O)NC(C)C)c2c3ccccc3c3ccccc3n2c1-c1ccccc1
IC50 (CCRF-CEM): 3.15 µM
IC50 (CEM-VLB): 4.48 µM
IC50 (HCT-116): 16.2 µM
IC50 (NCI-H1650): 16.3 µM
IC50 (NCI-H460): 14.9 µM
IC50 [1]: 13.8 µM

Compound: CC(C)NC(=O)OCc1cn2c3ccccc3c3ccccc3c2c1COC(=O)NC(C)C
IC50 (CCRF-CEM): 1.75 µM
IC50 (CEM-VLB): 2.21 µM
IC50 (HCT-116): 2.27 µM
IC50 (NCI-H1650): 9.62 µM
IC50 (NCI-H460): 7.2 µM
IC50 [1]: 15.3 µM

Compound: CC[C@]1(O)C[C@@H]2CN(CCc3c([nH]c4ccccc34)[C@@](C(=O)OC)(c3cc4c(cc3OC)N(C)[C@H]3[C@@](O)(C(=O)OC)[C@H](OC(C)=O)[C@]5(CC)C=CCN6CC[C@]43[C@@H]65)C2)C1 [VINBLASTINE]
IC50 (CCRF-CEM): 0.00141 µM
IC50 (CEM-VLB): 0.393 µM

Compound: CC(C)NC(=O)OCc1c(COC(=O)NC(C)C)c2c3ccccc3c3ccccc3n2c1-c1ccc(F)cc1
IC50 (CCRF-CEM): 4.1 µM
IC50 (CEM-VLB): 3.17 µM

Compound: CCNC(=O)OCc1cn2c3ccccc3c3ccccc3c2c1COC(=O)NCC
IC50 (CCRF-CEM): 1.28 µM
IC50 (CEM-VLB): 1.24 µM
IC50 (HCT-116): 1.8 µM
IC50 (NCI-H1650): 5.73 µM
IC50 (NCI-H460): 4.25 µM
IC50 [1]: 4.41 µM

Compound: CCNC(=O)OCc1c(COC(=O)NCC)c2c3ccccc3c3ccccc3n2c1CC
IC50 (CCRF-CEM): 1.89 µM
IC50 (CEM-VLB): 1.68 µM
IC50 (HCT-116): 8.53 µM
IC50 (NCI-H1650): 10.1 µM
IC50 (NCI-H460): 9.09 µM
IC50 [1]: 5.05 µM

Compound: CCNC(=O)OCc1c(COC(=O)NCC)c2c3ccccc3c3ccccc3n2c1-c1ccccc1
IC50 (CCRF-CEM): 4.09 µM
IC50 (CEM-VLB): 2.48 µM
IC50 (HCT-116): 21 µM
IC50 (NCI-H1650): 18.2 µM
IC50 (NCI-H460): 9.03 µM
IC50 [1]: 11.1 µM

Compound: CCNC(=O)OCc1c(COC(=O)NCC)c2c3ccccc3c3ccccc3n2c1-c1ccc(F)cc1
IC50 (CCRF-CEM): 3.41 µM
IC50 (CEM-VLB): 3.4 µM

Activity (dsDNA): Active
Compound: CCc1c(CO)c(CO)c2n1Cc1c(c3ccccc3c3ccccc13)C2
IC50 (CCRF-CEM): 1.38 µM
IC50 (CEM-VLB): 1.08 µM
IC50 (HCT-116): 2.7 µM
IC50 (NCI-H1650): 2.39 µM
IC50 (NCI-H460): 1.33 µM
IC50 [1]: 2.66 µM

Compound: COc1ccc(-c2c(CO)c(CO)c3n2Cc2c(c4ccccc4c4ccccc24)C3)cc1
IC50 (CCRF-CEM): 2.99 µM
IC50 (CEM-VLB): 2.83 µM

Compound: OCc1c(CO)c2c3ccccc3c3ccccc3n2c1-c1ccccc1
IC50 (CCRF-CEM): 9.82 µM
IC50 (CEM-VLB): 10.9 µM
IC50 (HCT-116): 73.3 µM
IC50 (NCI-H1650): 39 µM
IC50 (NCI-H460): 37.5 µM
IC50 [1]: 36.7 µM

Compound: COc1ccc(-c2c(COC(=O)NC(C)C)c(COC(=O)NC(C)C)c3c4ccccc4c4ccccc4n23)cc1
IC50 (CCRF-CEM): 2.19 µM
IC50 (CEM-VLB): 2.76 µM
